# Data from patent US10077247B2, “Tricyclic spiro compound” (ONO PHARMACEUTICAL CO., LTD., priority 2015, dated 2018).
# What was measured:
# rat EP4 receptor = rat EP4 receptor (Rattus norvegicus (Rat), UniProt P43114); assay: EP4 antagonistic activity measurement using prostanoid receptor subtype expressing cells (cAMP); type: cell-based; settings: CHO cells expressing rat EP4 receptor; inhibition of cAMP production by PGE2 10 nM
# Procedure: CHO cells expressing rat EP4 receptor subtypes were prepared according to the methods of Nishigaki et al. (FEBS Letters, Vol. 364, p. 339-341, 1995), and used for experiment. Cultured subconfluent cells were detached, and suspended in an assay medium (MEM containing 1 mmol/L IBMX, 1% HSA) in a concentration of 1×10^6 cells/mL. For reaction, PGE2 was added to the cell suspension (25 μL) in a final concentration of 10 nmol/L, either alone or as a 25-μL PGE2 solution containing the test compound. After 30 minutes of reaction at room temperature, the amount of cAMP in the cells was quantified according to the method in the descriptions of the cAMP assay kit (CISBIO).
# The antagonistic effect (IC50 value) of the test compound was calculated as a value that represents an inhibition rate against a reaction with PGE2 alone at 10 nM, a concentration that produces a submaximal cAMP producing effect.
# [1] = Pharmacokinetics test (hepatic microsome stability test); settings: human hepatic microsome 1 mg/mL, 37° C., 60 min, 1 μmol/L
# Chain of rat EP4 receptor (P43114 whole entry): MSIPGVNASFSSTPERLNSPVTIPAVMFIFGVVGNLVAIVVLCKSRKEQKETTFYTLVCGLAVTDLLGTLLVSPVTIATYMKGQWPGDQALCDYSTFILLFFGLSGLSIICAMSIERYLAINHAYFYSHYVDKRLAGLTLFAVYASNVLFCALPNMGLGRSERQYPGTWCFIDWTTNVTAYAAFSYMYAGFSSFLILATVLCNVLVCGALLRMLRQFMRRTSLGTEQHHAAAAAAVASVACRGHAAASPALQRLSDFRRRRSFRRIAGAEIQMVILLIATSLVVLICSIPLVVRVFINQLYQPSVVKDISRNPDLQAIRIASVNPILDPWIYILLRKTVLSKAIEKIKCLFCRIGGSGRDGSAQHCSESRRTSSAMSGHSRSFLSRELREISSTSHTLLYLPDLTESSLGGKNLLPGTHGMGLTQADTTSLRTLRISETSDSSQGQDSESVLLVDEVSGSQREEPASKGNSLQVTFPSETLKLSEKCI
Structure (SMILES),IC50 (rat EP4 receptor),Remaining rate (%) [1]
"CC(C)(C)NC(=O)c1ccc2c(c1)[C@]1(CCO2)C[C@H]1C(=O)Nc1cc(C#N)ccc1CCCC(=O)O [Example 2-3, 4-{4-Cyano-2-[({(2′R, 4S)-6-[(2-methyl-2-propanyl)carbamoyl]-2,3-dihydrospiro[chromene-4,1′-cyclopropan]-2′-yl}carbonyl)amino]phenyl}butanoic acid]",3.5 nM,91%
"Cn1ccc(NC(=O)c2ccc3c(c2)[C@]2(CCO3)C[C@H]2C(=O)Nc2cc(C#N)ccc2CCCC(=O)O)n1 [Example 2-9, 4-{4-Cyano-2-[({(2′R,4S)-6-[(1-methyl-1H-pyrazol-yl)carbamoyl]-2,3-dihydrospiro[chromene-4,1′-cyclopropan]-2′-yl}carbonyl)amino]phenyl}butanoic acid]",4.5 nM,92%
"N#Cc1ccc(CCCC(=O)O)c(NC(=O)[C@@H]2C[C@]23CCOc2ccc(C(=O)NC4CC4)cc23)c1 [Example 2-10, 4-[4-cyano-2-({[(2′R,4S)-6-(cyclopropylcarbamoyl)-2,3-dihydrospiro[chromene-4,1′-cyclopropan]-2′-yl]carbonyl}amino)phenyl]butanoic acid]",4 nM,94%
"N#Cc1ccc(CCCC(=O)O)c(NC(=O)[C@@H]2C[C@]23CCOc2ccc(C(=O)NC4CCCC4)cc23)c1 [Example 2-14, 4-[4 Cyano 2-({[(2′R,4S)-6-(cyclopentylcarbamoyl)-2,3-dihydrospiro[chromene-4,1′-cyclopropan]-2′-yl]carbonyl}amino)phenyl]butanoic acid]",4.5 nM,96%
"N#Cc1ccc(CCCC(=O)O)c(NC(=O)[C@@H]2C[C@]23CCOc2ccc(C(=O)Nc4ccccn4)cc23)c1 [Example 2-23, 4-[4-Cyano-2-({[(2′R,4S)-6-(2-pyridinylcarbamoyl)-2,3-dihydrospiro[chromene-4,1′-cyclopropan]-2′-yl]carbonyl}amino)phenyl]butanoic acid]",4.5 nM,100%
"N#Cc1ccc(CCCC(=O)O)c(NC(=O)[C@@H]2C[C@]23CCOc2ccc(C(=O)NCC(F)F)cc23)c1 [Example 2-32, 4-{4-Cyano-2-[({(2′R,4S)-6-[(2,2-difluoroethyl)carbamoyl]-2,3-dihydrospiro[chromene-4,1′-cyclopropan]-2′-yl}carbonyl)amino]phenyl}butanoic acid]",3.7 nM,85%
"CN1CC[C@H](NC(=O)c2ccc3c(c2)[C@]2(CCO3)C[C@H]2C(=O)Nc2cc(C#N)ccc2CCCC(=O)O)C1 [Example 2-33, 4-[4-Cyano-2-({[(2′R,4S)-6-{[(3S)-1-methyl-3-pyrrolidinyl]carbamoyl}-2,3-dihydrospiro[chromene-4,1′-cyclopropan]-2′-yl]carbonyl}amino)phenyl]butanoic acid]",9.7 nM,89%
"N#Cc1ccc(CCCC(=O)O)c(NC(=O)[C@@H]2C[C@]23CCOc2ccc(C(=O)Nc4ncccn4)cc23)c1 [Example 2-36, 4-[4-Cyano-2-({[(2′R,4S)-6-(2-pyrimidinylcarbamoyl)-2,3-dihydrospiro[chromene-4,1′-cyclopropan]-2′-yl]carbonyl}amino)phenyl]butanoic acid]",5.4 nM,100%
"N#Cc1ccc(CCCC(=O)O)c(NC(=O)[C@@H]2C[C@]23CCOc2ccc(C(=O)NC4CCC4)cc23)c1 [Example 2-38, 4-[4-Cyano-2-({[(2′R,4S)-6-(cyclobutylcarbamoyl)-2,3-dihydrospiro[chromene-4,1′-cyclopropan]-2′-yl]carbonyl}amino)phenyl]butanoic acid]",4.7 nM,100%
"N#Cc1ccc(CCCC(=O)O)c(NC(=O)[C@@H]2C[C@]23CCOc2ccc(C(=O)NC4CCOCC4)cc23)c1 [Example 2-40, 4-[4-Cyano-2-({[(2′R,4S)-6-(tetrahydro-2H-pyran-4-ylcarbamoyl)-2,3-dihydrospiro[chromene-4,1′-cyclopropan]-2′-yl]carbonyl}amino)phenyl]butanoic acid]",7.2 nM,100%
"Cn1nccc1NC(=O)c1ccc2c(c1)[C@]1(CCO2)C[C@H]1C(=O)Nc1cc(C#N)ccc1CCCC(=O)O [Example 2-43, 4-{4-Cyano-2-[({(2′R,4S)-6-[(1-methyl-1H-pyrazol-5-yl)carbamoyl]-2,3-dihydrospiro[chromene-4,1′-cyclopropan]-2′-yl}carbonyl)amino]phenyl}butanoic acid]",3.6 nM,100%
"CCOCCNC(=O)c1ccc2c(c1)[C@]1(CCO2)C[C@H]1C(=O)Nc1cc(C#N)ccc1CCCC(=O)O [Example 2-45, 4-{4-Cyano-2-[({(2′R,4S)-6-[(2-ethoxyethyl)carbamoyl]-2,3-dihydrospiro[chromene-4,1′-cycopropan]-2′-yl}carbonyl)amino]phenyl}butanoic acid]",8.3 nM,100%
"N#Cc1ccc(CCCC(=O)O)c(NC(=O)[C@@H]2C[C@]23CCOc2ccc(-c4ccccc4)cc23)c1 [Example 7-1, 4-[4-Cyano-2-({[(2′R,4S)-6-phenyl-2,3-dihydrospiro[chromene-4,1′-cyclopropan]-2′-yl]carbonyl}amino)phenyl]butanoic acid]",17 nM,81%

# The remaining compounds from weak to strong by IC50 (rat EP4 receptor), led by results:
IC50 (rat EP4 receptor),Remaining rate (%) [1],Structure (SMILES)
3.4 nM,97%,"N#Cc1ccc(CCCC(=O)O)c(NC(=O)[C@@H]2C[C@]23CCOc2ccc(C(=O)Nc4ccon4)cc23)c1 [Example 2-37, 4-[4-Cyano-2-({[(2′R,4S)-6-(1,2-oxazol-3-ylcarbamoyl)-2,3-dihydrospiro[chromene-4,1′-cyclopropan]-2′-yl]carbonyl}amino)phenyl]butanoic acid]"
3.4 nM,90%,"CC(C)(C)n1cc(NC(=O)c2ccc3c(c2)[C@]2(CCO3)C[C@H]2C(=O)Nc2cc(C#N)ccc2CCCC(=O)O)cn1 [Example 2-39, 4-[4-Cyano-2-({[(2′R,4S)-6-{[1-(2-methyl-2-propanyl)-1H-pyrazol-4-yl]carbamoyl}-2,3-dihydrospiro[chromene-4,1′-cyclopropan]-2′-yl]carbonyl}amino)phenyl]butanoic acid]"
3.4 nM,100%,"N#Cc1ccc(CCCC(=O)O)c(NC(=O)[C@@H]2C[C@]23CCOc2ccc(C(=O)Nc4ccno4)cc23)c1 [Example 2-41, 4-[4-Cyano-2-({[(2′R,4S)-6-(1,2-oxazol-5-ylcarbamoyl)-2,3-dihydrospiro[chromene-4,1′-cyclopropan]-2′-yl]carbonyl}amino)phenyl]butanoic acid]"
3.3 nM,86%,"COC[C@H](C)NC(=O)c1ccc2c(c1)[C@]1(CCO2)C[C@H]1C(=O)Nc1cc(C#N)ccc1CCCC(=O)O [Example 2-4, 4-[4-Cyano-2-({[(2′R,4S)-6-{[(2S)-1-methoxy-2-propanyl]carbamoyl}-2,3-dihydrospiro[chromene-4,1′-cyclopropan]-2′-yl]carbonyl}amino)phenyl]butanoic acid]"
3 nM,90%,"CCNC(=O)c1ccc2c(c1)[C@]1(CCO2)C[C@H]1C(=O)Nc1cc(C#N)ccc1CCCC(=O)O [Example 2-46, 4-[4-Cyano-2-({[(2′R,4S)-6-(ethylcarbamoyl)-2,3-dihydrospiro[chromene-4,1′-cyclopropan]-2′-yl]carbonyl}amino)phenyl]butanoic acid]"
2.8 nM,80%,"Cc1noc(-c2ccc3c(c2)[C@]2(CCO3)C[C@H]2C(=O)Nc2cc(C#N)ccc2CCCC(=O)O)n1 [Example 5, 4-[4-Cyano-2-({[(2′R,4S)-6-(3-methyl-1,2,4-oxadiazol-5-yl)-2,3-dihydrospiro[chromene-4,1′-cyclopropan]-2′-yl]carbonyl}amino)phenyl]butanoic acid]"
2.7 nM,100%,"Cc1nnc(-c2ccc3c(c2)[C@]2(CCO3)C[C@H]2C(=O)Nc2cc(C#N)ccc2CCCC(=O)O)o1 [Example 3, 4-[4-Cyano-2-({[(2′R,4S)-6-(5-methyl-1,3,4-oxadiazol-2-yl)-2,3-dihydrospiro[chromene-4,1′-cyclopropan]-2′-yl]carbonyl}amino)phenyl]butanoic acid]"
2.5 nM,94%,"CNC(=O)c1ccc2c(c1)[C@]1(CCO2)C[C@H]1C(=O)Nc1cc(C#N)ccc1CCCC(=O)O [Example 1, 4-[4-Cyano-2-({[(2′R,4S)-6-(methylcarbamoyl)-2,3-dihydrospiro[chromene-4,1′-cyclopropan]-2′-yl]carbonyl}amino)phenyl]butanoic acid]"
2.5 nM,80%,"N#Cc1ccc(CCCC(=O)O)c(NC(=O)[C@@H]2C[C@]23CCOc2ccc(C(=O)Nc4cccnn4)cc23)c1 [Example 2-29, 4-[4-Cyano-2-({[(2′R,4S)-6-(3-pyridazinylcarbamoyl)-2,3-dihydrospiro[chromene-4,1′-cyclopropan]-2′-yl]carbonyl}amino)phenyl]butanoic acid]"
2.5 nM,100%,"CCCNC(=O)c1ccc2c(c1)[C@]1(CCO2)C[C@H]1C(=O)Nc1cc(C#N)ccc1CCCC(=O)O [Example 2-44, 4-[4-Cyano-2-({[(2′R,4S)-6-(propylcarbamoyl)-2,3-dihydrospiro[chromene-4,1′-cyclopropan]-2′-yl]carbonyl}amino)phenyl]butanoic acid]"
1.3 nM,,Cn1cc(NC(=O)c2ccc3c(c2)[C@]2(CCO3)C[C@H]2C(=O)Nc2cc(C#N)ccc2CCCC(=O)O)cn1 [Example 2-5]
